Reference: paper PMC5296733, “Functional Coupling of Human Microphysiology Systems: Intestine, Liver, Kidney Proximal Tubule, Blood-Brain Barrier and Skeletal Muscle” (Scientific Reports, 2017)
Where two headings read alike, the source gives them in different places.

How the values were obtained:
[1] = tested on: differentiated human jejunal enteroids
From the text: (§1) Mass spectrometry was used to measure the concentration of compound and metabolites in the media following exposure in each MPS organ module.
(§2) Human jejunal enteroid cultures were isolated from two separate donors as described[59] and maintained in culture as spherical enteroids in Matrigel (Becton Dickinson, Franklin Lakes, NJ) until dissociated and plated as monolayer cultures on collagen IV coated polyethylene terephthalate (PET) Transwell® membrane inserts (Corning, Inc., Corning, NY) (Fig. 1A)[55][59][60][61]. The apical chamber received 100 μl of a 5 × 10^6/mL of the suspended cells in proliferation media. The basolateral chamber received 600 μl of proliferation media. […] Jejunal barrier monolayer with intact tight junctions were established by TEER testing and the restricted diffusion of 4 kD FITC-dextran polymers over the 24 h period (Supplemental Information Supplemental Table S8).
(§3) TMA was prepared at a concentration 3 mM by dissolving the neat compound directly into intestinal apical media. […] The dried residue was solubilized in apical media and mixed by sonication in a water bath for 30 s.
(§4) All treatments were conducted in duplicate modules in each laboratory. […] The apical and basolateral media were collected in glass vials and frozen at −80 °C for MS analysis and transported to UPitt for testing in the SQL-SAL module.

[2] = tested on: static SQL-SAL liver model; test: Static 4-cell SQL-SAL liver in 96-well microplates (vitamin D3); format: in vitro ADME, human; conditions: for Concentration in liver efflux media: vitamin D3 experiment, 96-well 4-cell liver module, 72 h, media pooled
Experimental: Media without dexamethasone was used to avoid downstream toxicity to the human neurons in the NVU. […]
The intestinal/liver-conditioned media efflux was collected and samples were tested by MS or transported on dry ice for testing in the kidney module, or the BBB/NVU module.
Dexamethasone, normally used to maintain hepatocyte differentiation, was removed from the liver media for functional coupling to avoid downstream toxicity to the human neurons in the NVU. […] Briefly, cryopreserved human hepatocytes were seeded into collagen type 1 coated 96-well plates at 26,000 hepatocytes/well and allowed to attach overnight in hepatocyte plating media (HPM). The HPM was decanted and 1.25x10^5 Ea.Hy.926 endothelial cells and 8 X10^4 differentiated U937 immune cells in MEM media supplemented with 10% FBS and L-Glutamine were added. After 2 h the media was decanted and 40 µL of a slurry of 1.5 mg/mL gelling collagen type 1 in Williams E media with 4 X 10^4 LX-2 stellate cells was added.

[3] = tested on: proximal tubule kidney (PTK) module; test: Proximal tubule kidney (PTK) module, vitamin D3 metabolites
Experimental: Briefly, a single 100 μm diameter lumen was pre-cast in gelling collagen inside the microfluidic device and then seeded with passage 5 kidney PTEC to 100% confluence according to established methods[52]. The kidney proximal tubule modules were then perfused (30 μL/h) for 8 days with 100% kidney proximal tubule media prior to perfusion with mixed media solutions.
All media samples were stored in amber glass vials at −80 °C until LC-MS/MS analysis.

[4] = tested on: differentiated human jejunal enteroids; test: Intestine module: jejunal enteroid Transwell transport and metabolism; conditions: for Concentration in micelle preparation: synthetic micelles containing 100 μM vitamin D3
From the text: as §1, §2, §3, §4

[5] = tested on: blood-brain barrier/neurovascular unit (BBB/NVU); test: BBB/NVU module penetration; conditions: for Penetration through blood-brain barrier (MPS): BBB/NVU module, TMAO 12 h, others 24 h
[6] = tested on: Kidney MPS Organ Module (PTK); test: Vitamin D binding protein as carrier in PTK module; conditions: 1 μM 25-(OH) VD3
[7] = cited from earlier work
[8] = tested on: Liver MPS Organ Module; test: Effect of vitamin D binding protein on recovery and metabolism in liver module; format: in vitro ADME, human; conditions: for 25-(OH) VD3 formation / VD3 Recovered in Efflux Media: 7 μM VitD3
Experimental: Media without dexamethasone was used to avoid downstream toxicity to the human neurons in the NVU. […] Media samples were collected after 24 h and 48 h incubations.
Samples from the treatment conditions were collected after 24-h and 48-h incubations and stored in amber glass vials at -80°C for LC-MS/MS analysis.

[9] = tested on: vascularized proximal tubule kidney (VPTK) module; test: Vascularized proximal tubule kidney (VPTK) module secretion; conditions: for Excreted into proximal tubule lumen, MPS: Table 2, MPS model
Experimental: as §1
To form the vascularized kidney model, 2 lumens were pre-cast side-by-side in gelling collagen inside the Nortis microfluidic device. Human proximal tubule epithelial cells (PTEC) were seeded on the wall of one lumen channel at an approximate density of 20 × 10^6 cells/mL and were allowed to attach for 1 h. Culture media flow at 30 μl/h was then initiated and maintained for 5 days in order to establish a 100% confluent tubule expressing tight junctions. On day 6, the flow of culture media to the PTEC channel was stopped to allow the second channel seeding at 20 × 10^6 human umbilical vein endothelial cells/mL (HUVEC) and allowed to attach for 30–60 minutes. Parallel media flow of defined DMEM/F-12 (see Supplement) with 2% FBS for the PTEC channel and EGM-2 media for HUVEC channel were initiated at a rate of 30 μl/h. The VPTK devices were allowed to stabilize overnight before conducting test compound treatment.
The media for the PTEC channel remained unchanged. Media perfusion was initiated simultaneously for both channels at a flow rate of 60 μl/h. The effluents from both channels were collected for 6 h. Due to the insensitivity of the TMAO analyte by mass spectrometry, an additional TMAO experiment using EGM-2 media supplemented with 5 mM TMAO was conducted in the VPTK to quantitate the level of TMAO secretion.

[10] = tested on: blood-brain barrier/neurovascular unit (BBB/NVU); conditions: human, 24 h
[11] = 0-48 h, 50% liver-conditioned, N=2
[12] = 100 μM vitamin D3 micelles apical, 24 h
[13] = initial four-organ functional study, no DBP
[14] = 3 mM TMA added to apical compartment, 0-24 h
[15] = kidney perfused at 3.75 X 10^5 ng/ml TMAO spiked media, 0-6 h
[16] = kidney perfused with liver conditioned media, 0-6 h
[17] = TMA experiment, liver-conditioned media, Brain (12 h)
[18] = liver-conditioned media, 6 h perfusion
[19] = terfenadine experiment, liver-conditioned media, 0-6 h

SMILES: C=C1/C(=C\C=C2/CCC[C@]3(C)[C@@H]([C@H](C)CCCC(C)(C)O)CC[C@@H]23)C[C@@H](O)C[C@@H]1O [1α,25-(OH)2 Vitamin D3, 1α,25-(OH)2 vitamin D3]
- Concentration in micelle preparation [1]: < LOD^2 < LOD < LOD
- Concentration in liver efflux media [2]: 0.0064 ng/mL

SMILES: C=C1CC[C@H](O)[C@H](O)/C1=C/C=C1\CCC[C@]2(C)[C@@H]([C@H](C)CCCC(C)(C)O)CC[C@@H]12 [4β,25-(OH)2 Vitamin D3, 4β,25-(OH)2 vitamin D3]
- Concentration in kidney efflux media [3, 11]: 0.0033 ng/mL
- Concentration in kidney efflux media ([3]; 0-48 h, 80% liver-conditioned): 0.0064 ng/mL
- Concentration in kidney efflux media ([3]; 0-120 h, 50% liver-conditioned): 0.0076 ng/mL
- Concentration in kidney efflux media ([3]; 0-120 h, 80% liver-conditioned): 0.014 ng/mL
- Concentration in intestine apical media [4, 12]: < LOD^2 < LOD < LOD
- Concentration in intestine basolateral media [4, 12]: < LOD^2 < LOD < LOD
- Concentration in micelle preparation [4]: < LOD^2 < LOD < LOD
- Concentration in liver efflux media [2]: 0.047 ng/mL
- Concentration in brain neuronal efflux ([5]; vitamin D3 experiment, 24 h): LOD
- Concentration in brain vascular efflux ([5]; vitamin D3 experiment, 24 h): 0.0081 ± 0.0029 ng/mL

SMILES: C=C1CCC(O)C/C1=C\C=C1\CCCC2(C)C1CCC2C(C)CCC(O)C(C)(C)O (stereo not shown) [24,25-(OH)2 Vitamin D3, 24,25-(OH)2 vitamin D3]
- Metabolite formation in kidney efflux ([6]; 48-72 h, media + 2% FBS): 6.80 ± 1.6 pmol/day/ 10^6 Proximal Tubule Cells
- Concentration in kidney efflux media [3, 11]: 0.082 ng/mL
- Concentration in kidney efflux media ([3]; 0-48 h, 80% liver-conditioned): 0.12 ng/mL
- Concentration in kidney efflux media ([3]; 0-120 h, 50% liver-conditioned): 0.11 ng/mL
- Concentration in kidney efflux media ([3]; 0-120 h, 80% liver-conditioned): 0.16 ng/mL
- Concentration in intestine apical media [4, 12]: < LOD^2 < LOD < LOD
- Concentration in intestine basolateral media [4, 12]: < LOD^2 < LOD < LOD
- Concentration in micelle preparation [4]: < LOD^2 < LOD < LOD
- Concentration in liver efflux media [2]: 0.25 ng/mL
- Concentration in brain neuronal efflux ([5]; vitamin D3 experiment, 24 h): LOQ
- Concentration in brain vascular efflux ([5]; vitamin D3 experiment, 24 h): 0.079 ± 0.015 ng/mL

SMILES: C=C1CC[C@H](O)C/C1=C/C=C1\CCC[C@]2(C)[C@@H]([C@H](C)CCCC(C)(C)O)CC[C@@H]12 [25-(OH) Vitamin D3, 25-(OH) vitamin D3]
- Kidney metabolism, Clinical ([7]; Table 2, clinical): 25(OH)VD3 → 1α,25(OH)2VD3 & 24,25(OH)2VD3
- Penetration through blood-brain barrier, Clinical ([7]; Table 2, clinical): VD3 & 25(OH)VD3 Penetration
- Plasma 25-(OH) vitamin D3 transported by DBP ([7]; in humans): 85–90%
- 25-(OH) VD3 recovery ([6]; 48-72 h, Renal Tubular Epithelial Media + 3 μM Vitamin D Binding Protein): 100%
- 25-(OH) VD3 recovery ([6]; 48-72 h, Renal Tubular Epithelial Media + 2% FBS): 8%
- Recovered from syringes and tubing leading up to MPS module ([6]; media + 2% FBS): 16%
- Concentration in kidney efflux media [3, 11]: 0.12 ng/mL
- Concentration in kidney efflux media ([3]; 0-48 h, 80% liver-conditioned): 0.23 ng/mL
- Concentration in kidney efflux media ([3]; 0-120 h, 50% liver-conditioned): 0.29 ng/mL
- Concentration in kidney efflux media ([3]; 0-120 h, 80% liver-conditioned): 0.48 ng/mL
- 25-(OH) vitamin D3 perfused into the kidney that was unrecoverable [3, 13]: 90%
- Concentration in intestine apical media [4, 12]: < LOQ^1 < LOQ < LOQ
- Concentration in intestine basolateral media [4, 12]: < LOQ^1 < LOQ < LOQ
- Concentration in micelle preparation [4]: < LOQ^1 < LOQ < LOQ
- Concentration in liver efflux media [2]: 3.0 ng/mL
- 25-(OH) VD3 formation as % of in vivo rate ([8]; 0-24 h, 3 μM DBP): 4.9 % of in vivo rate
- 25-(OH) VD3 formation as % of in vivo rate ([8]; 0-24 h, no DBP): 2.7 % of in vivo rate
- 25-(OH) VD3 formation ([8]; 0-24 h, 3 μM DBP): 12.63 pmol/day/10^6 Hepatocytes
- 25-(OH) VD3 formation ([8]; 0-24 h, no DBP): 7.00 pmol/day/10^6 Hepatocytes
- Improvement of formation and recovery of the metabolite with DBP ([8]; DBP:vitamin D3 3:1 versus no DBP): 2–3 fold
- Penetration through blood-brain barrier (MPS) ([5]; liver-conditioned media): approximately 6%
- Penetration through blood-brain barrier (MPS) ([5]; liver-conditioned media, listed as 25(OH) VD3): 6%
- Concentration in brain neuronal efflux ([5]; vitamin D3 experiment, 24 h): 0.051 ± 0.022 ng/mL
- Concentration in brain vascular efflux ([5]; vitamin D3 experiment, 24 h): 0.82 ± 0.15 ng/mL

SMILES: CC(C)(C(=O)O)c1ccc(C(O)CCCN2CCC(C(O)(c3ccccc3)c3ccccc3)CC2)cc1 (stereo not shown) [Fexofenadine, fexofenadine, reference compound]
- Excreted into proximal tubule lumen, Clinical ([7]; Table 2, clinical): 11% Fex Excreted
- Excreted into proximal tubule lumen, MPS [9]: ~ 1% Fex Excreted
- Share of total fexofenadine found in lumen media ([9]; liver-conditioned media, 6 h): ~1%

SMILES: CN(C)C [TMA, trimethylamine]
- Intestine fate, Clinical ([7]; Table 2, clinical): Uptake & Transport
- Liver metabolism, Clinical ([7]; Table 2, clinical): TMA → TMAO
- TMA Clearance (liver), Clinical ([7]; Table 2, clinical): < 5%
- Share of starting TMA concentration found in basolateral media ([4]; 316 μg/mL (3 mM) apical, 24 h): 6%
- Concentration in intestine basolateral media [4, 14]: 19100 ± 2179 ng/mL
- Concentration in intestine basolateral media ([4]; TMA hydrochloride 316 μg/mL (3 mM) apical, 24 h): 19100 ± 2200 ng/mL
- Intestine fate, MPS ([4]; Table 2, MPS model): Uptake & Transport
- Concentration in kidney plasma efflux [9, 15]: < LOQ < LOQ
- Concentration in kidney proximal tubule lumen [9, 15]: < LOQ < LOQ
- Concentration in kidney plasma efflux [9, 16]: < LOQ <LOQ
- Concentration in kidney proximal tubule lumen [9, 16]: < LOQ <LOQ
- Concentration in brain neuronal efflux [5, 17]: < LOQ < LOQ
- Concentration in brain vascular efflux [5, 17]: < LOQ < LOQ

SMILES: C[N+](C)(C)[O-] [TMAO, trimethylamine-N-oxide]
- Excreted into proximal tubule lumen, Clinical ([7]; Table 2, clinical): > 95% TMAO Excreted
- Concentration in intestine apical media [4, 14]: < LOQ^1 < LOQ
- Concentration in intestine basolateral media [4, 14]: < LOQ^1 < LOQ
- Excreted into proximal tubule lumen, MPS [9]: ~46% TMAO Excreted
- TMAO secreted into the kidney lumen ([9]; independent experiment, media with 375 μg/mL TMAO): 46%
- Concentration in kidney plasma efflux [9, 16]: 21720 ± 6967 ng/mL
- Concentration in kidney proximal tubule lumen [9, 16]: 450 ± 290 ng/mL
- Share of TMAO found in lumenal media [9, 18]: 5%
- Share of TMAO found in vascular media [9, 18]: 95%
- Concentration in brain neuronal efflux [5, 17]: 1800 ± 100 ng/mL
- Concentration in brain vascular efflux [5, 17]: 4600 ± 200 ng/mL
- Concentration in BBB/NVU neuronal efflux ([5]; TMA experiment, 12 h perfusion): 1800 ± 100 ng/mL
- Concentration in BBB/NVU vascular efflux ([5]; TMA experiment, 12 h perfusion): 4600 ± 200 ng/mL

SMILES: CC(C)(C)c1ccc(C(O)CCCN2CCC(C(O)(c3ccccc3)c3ccccc3)CC2)cc1 (stereo not shown) [Terfenadine, terfenadine, reference compound]
- Bio T (liver), Clinical ([7]; Table 2, clinical): < 1%
- Intestine fate, Clinical ([7]; Table 2, clinical): Ter → Fex
- Concentration in kidney plasma (vascular) efflux [9, 19]: < LOQ^2 < LOQ
- Concentration in kidney proximal tubule lumen [9, 19]: < LOQ^2 < LOQ

SMILES: C=C1CC[C@H](O)C/C1=C/C=C1\CCC[C@]2(C)[C@@H]([C@H](C)CCCC(C)C)CC[C@@H]12 [Vitamin D3, vitamin D3, reference compound]
- Penetration through blood-brain barrier, Clinical ([7]; Table 2, clinical): VD3 & 25(OH)VD3 Penetration
- Concentration in kidney efflux media [3, 11]: 1.5 ng/mL
- Concentration in kidney efflux media ([3]; 0-48 h, 80% liver-conditioned): 4.3 ng/mL
- Concentration in kidney efflux media ([3]; 0-120 h, 50% liver-conditioned): 1.0 ng/mL
- Concentration in kidney efflux media ([3]; 0-120 h, 80% liver-conditioned): 1.4 ng/mL
- Share of initial vitamin D3 concentration transported to basolateral media ([4]; 100 μM vitamin D3 in micelles apical, 24 h): 23%
- Concentration in micelle preparation [4]: 36000 ± 4200 ng/mL
- Concentration in intestine apical media ([1]; human, 24 h, 100 µM): 20000 ± 2200 ng/mL
- Concentration in intestine basolateral media ([1]; human, 24 h, 100 µM): 8300 ± 410 ng/mL
- Concentration in brain neuronal efflux [10]: 0.19 ± 0.23 ng/mL
- Concentration in brain vascular efflux [10]: 45 ± 6.2 ng/mL
- Liver metabolism, MPS ([2]; Table 2, MPS model, vitamin D3): VD3 → 25(OH)VD3 & 24,25(OH)2VD3
- Vitamin D3 perfused into the liver that was unrecoverable [2, 13]: 80%
- Concentration in liver efflux media [2]: 1100 (pooled)^3 ng/ml
- VD3 Recovered in Efflux Media ([8]; 0-24 h, Williams E Media + 1.25 mg/ml BSA (no DBP)): 20%
- VD3 Recovered in Efflux Media ([8]; 0-24 h, Williams E Media + 1.25 mg/ml BSA (no DBP), listed as VD3): 20% recovery
- VD3 Recovered in Efflux Media ([8]; 0-24 h, Williams E Media, 1.25 mg/ml BSA, 3 μM Vitamin D Binding Protein, listed as VD3): 57% recovery
- VD3 Recovered in Efflux Media ([8]; 24-48 h, Williams E Media, 1.25 mg/ml BSA, 3 μM Vitamin D Binding Protein): ~100%
- VD3 Recovered in Efflux Media ([8]; 24-48 h, Williams E Media, 1.25 mg/ml BSA, 3 μM Vitamin D Binding Protein, listed as VD3): 100% recovery
- Penetration through blood-brain barrier (MPS) ([5]; liver-conditioned media): 0.4%
